Measured values taken from patent publication US20080255206A1, “Rxr Agonists and Antagonists, Alone or in Combination with Ppar Ligands, in the Treatment of Metabolic and Cardiovascular Diseases” (priority 2005, published 2008).
Each block holds one compound with its values, some of them ahead of it.

Key:
[1] = target: T1, RARγ (Homo sapiens, UniProt P13631); test: Retinoid activation assay, RARγ (COS-1 cells, SeAP reporter); type: cell-based; conditions: read-out: Activation EC50 RAR γ
T1 sequence (P13631 185-454 limits assumed): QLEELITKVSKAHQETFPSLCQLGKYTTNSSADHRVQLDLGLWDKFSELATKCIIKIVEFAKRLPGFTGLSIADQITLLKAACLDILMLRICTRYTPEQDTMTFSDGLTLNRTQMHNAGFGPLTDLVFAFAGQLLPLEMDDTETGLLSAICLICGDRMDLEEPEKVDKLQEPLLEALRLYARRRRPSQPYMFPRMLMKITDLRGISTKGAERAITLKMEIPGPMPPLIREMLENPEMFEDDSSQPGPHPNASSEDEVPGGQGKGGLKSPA
Protocol: (§1) Chimeric RAR cDNAs are used for transfection which contain the DNA binding region of the estrogen receptor. As reporter system, the SeAp (secreted alkaline phosphatase) gene under control of the vitellogenin estrogen response element fused to the herpes simplex thymidinkinase promoter (vit-TK-SeAP) is used. The galactosidase expression vector pCH110 serves to correct for variation in transfection efficiency. […] At the end of the incubation, the cell supernatants are assayed for SeAP activity. Results are given as EC50 (nM), the concentration leading to half-maximal activation.

[2] = tested on: healthy, non-inflamed human skin; test: Topical application on healthy human skin, clinical pilot trial; type: in vivo; set-up: key to Skin inflammation score (scale 0-4): 0: no signs or symptoms of skin inflammation; 1: slight erythema, desquamation and pruritus; 2: moderate erythema, desquamation and pruritus; 3: marked erythema, desquamation, pruritus/burning; 4: severe erythema, desquamation, pruritus, burning or even pain, edema, exsudation, ulceration; conditions: for Skin inflammation score (scale 0-4): day 17; for Irritation or inflammation of the skin: human volunteer, 1% concentration daily to the skin for 2 weeks
Description: In a clinical pilot trial on one healthy volunteer compound 15 is applied epicutaneously in a concentration of 1% for its inflammation potential compared to that of the strong inflammation inducing agent 9-cis RA in concentrations of 0.1%, 0.3% and 1%.
The compounds are solved or suspended in ethanol/propylene glycol (1:1). They are applied epicutaneously twice daily, 7 days a week, for two concecutive weeks. The site of application is an area of 3×3=9 cm^2 on the abdominal skin. The volume is 0.1 ml per application.
The following signs and symptoms of skin inflammation are recorded: Erythema, desquamation (scaling), pruritus, burning, pain, exsudation, edema, ulceration. They are classified on a scale of: • 0=no signs or symptoms of skin inflammation • 1=slight erythema, desquamation and pruritus • 2=moderate erythema, desquamation and pruritus • 3=marked erythema, desquamation, pruritus/burning • 4=severe erythema, desquamation, pruritus, burning or even pain, edema, exsudation, ulceration
Treatment period lasts from day 1 to 14, the post-treatment observation period from day 15 to day 28.

[3] = tested on: skin inflammation induced by topical 9-cis RA; test: Preventive and therapeutic effect on 9-cis RA-induced skin inflammation, human volunteer study; type: in vivo
Protocol: In this pilot clinical trial on one healthy volunteer, the substance 9-cis RA and compound 15 are administered epicutaneously. The inflammation-inducing agent 9-cis RA is used in a concentration of 0.3%. The RXR antagonist compound 15 is applied in a concentration of 1%. The compounds are solved in ethanol/propylene glycol (1:1) and administered twice daily. The site of application is the abdominal skin, with various areas of 3×3=9 cm^2. Volume per application is 0.1 ml.
The following three clinical settings at different sites are chosen: • 1. Induction of skin inflammation by 9-cis RA 9-cis RA is administered as a 0.3% solution twice daily from day 1 to day 14. The vehicle is administered from day 15 to disappearance of skin inflammation. • 2. Prevention of 9-cis RA-induced skin inflammation by RXR antagonist Compound 15 9-cis RA solution of 0.3% is administered twice daily from day 1 to day 14, each time followed subsequently by application of compound 15 as a 1% solution. • 3. Therapy of 9-cis RA-induced skin inflammation by RXR antagonist compound 15 9-cis RA solution of 0.3% is administered twice daily from day 1 to day 14. Compound 15 as a 1% solution is administered from day 15 until disappearance of skin inflammation.
The signs and symptoms of skin inflammation are recorded on a 0-4 scale, as described in example 21. The evaluation of the anti-inflammatory effect is based on the daily determination of the inflammation score (scale 0-4).
The following parameters serve as criteria for evaluation of the effect of 9-cis RA, the preventive effect of compound 15 and the therapeutic effect of compound 15. • 1. Sum of the daily inflammation scores from day 1 to day 28. Total inflammation score. • 2. Sum of the daily inflammation scores from day 15 to disappearance of skin inflammation. • 3. Time in days from day 15 to disappearance of skin inflammation.

[4] = tested on: skin of mice; test: Topical administration to the skin of mice (irritation); type: in vivo; conditions: concentrations up to 2.5%
[5] = tested on: skin of rats; test: Topical administration to the skin of rats (irritation); type: in vivo; conditions: concentrations up to 2.5%
[6] = target: T2, RARα (Homo sapiens, UniProt P10276); test: Retinoid activation assay, RARα (COS-1 cells, SeAP reporter); type: cell-based; conditions: read-out: Activation EC50 RAR α
T2 sequence (P10276 183-417 limits assumed): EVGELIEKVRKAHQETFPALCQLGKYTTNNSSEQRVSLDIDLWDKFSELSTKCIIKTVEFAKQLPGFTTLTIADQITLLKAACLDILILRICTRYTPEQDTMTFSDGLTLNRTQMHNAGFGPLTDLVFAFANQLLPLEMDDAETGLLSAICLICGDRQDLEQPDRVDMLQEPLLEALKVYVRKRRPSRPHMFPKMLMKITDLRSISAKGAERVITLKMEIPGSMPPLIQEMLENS
Protocol: as §1

[7] = 9-cis RA 0.3% day 1 to day 14, then vehicle
[8] = Prevention: 9-cis RA 0.3% and compound 15 1%, both day 1 to day 14
[9] = Therapy: 9-cis RA 0.3% day 1 to day 14, compound 15 1% day 15 to disappearance of inflammation

EC50 [1]: 1000 nM
Compound: CC(/C=C/[C@@H]1C[C@@H]1c1ccc2c(c1)C(C)(C)CCC2(C)C)=C\C(=O)O (racemic) [Compound 4, (2E,4E)-3-methyl-5-[(1RS,2RS)-2-(5,5,8,8-tetramethyl-5,6,7,8-tetrahydro-naphthalen-2-yl)-cyclopropyl]-penta-2,4-dienoic acid]

Compound: CC1=C(/C=C/C(C)=C\C=C\C(C)=C\C(=O)O)C(C)(C)CCC1 [9-cis RA, 9-cis retinoic acid, reference compound]
Skin inflammation score (scale 0-4) ([2]; 0.1% epicutaneously twice daily day 1-14): 1
Skin inflammation (in words) ([2]; 0.1% epicutaneously twice daily, days 12, 13 and 14): moderate inflammation
Skin inflammation score (scale 0-4) ([2]; 0.3% epicutaneously twice daily day 1-14): 2
Skin inflammation (in words) ([2]; 0.3% epicutaneously twice daily, days 12, 13 and 14): moderate inflammation
Skin inflammation score (scale 0-4) ([2]; 1% epicutaneously twice daily day 1-14): 3
Skin inflammation (in words) ([2]; 1.0% epicutaneously twice daily, days 12, 13 and 14): marked inflammation
Sum of daily inflammation scores from day 15 to disappearance of inflammation [3, 7]: 14
Sum of daily inflammation scores, day 1 to day 28. Total inflammation score [3, 7]: 18
Time in days from day 15 to disappearance of inflammation [3, 7]: 13 days

Compound: CC1=C(/C=C/C2=C(/C=C/C(C)=C/C(=O)O)CCCCC2)C(C)(C)CCC1 [Compound 1, (2E,4E)-3-methyl-5-[2-[(E)-2-(2,6,6-trimethyl-1-cyclohexen-1-yl)ethenyl]-1-cyclohepten-1-yl]-2,4-pentadienoic acid]
Irritation or inflammation of the skin [4]: does not lead to irritation or inflammation of the skin
Irritation or inflammation of the skin [5]: does not lead to irritation or inflammation of the skin
Irritation or inflammation of the skin [2]: does not induce any irritation or inflammation of the skin

EC50 [6]: 170 nM
EC50 [1]: 170 nM
Compound: CC1=C(/C=C/c2sccc2/C=C/C(C)=C/C(=O)O)C(C)(C)CCC1 [Compound 5, (2E,4E)-3-Methyl-5-[2-[(E)-2-(2,6,6-trimethyl-1-cyclohexen-1-yl)ethenyl]-3-thienyl]-2,4-pentadienoic acid]

Compound: CC(/C=C/c1sccc1-c1ccc2c(c1)C(C)(C)CCC2(C)C)=C\C(=O)O [Compound 9]
EC50 [6]: 2300 nM
EC50 [1]: 890 nM

EC50 [6]: 370 nM
EC50 [1]: 200 nM
Compound: CC(/C=C/C1=C(c2ccc3c(c2)C(C)(C)CCC3(C)C)CCC1)=C\C(=O)O [Compound 12, (2E,4E)-3-Methyl-5-[2-(5,5,8,8-tetramethyl-5,6,7,8-tetrahydro-naphthalen-2-yl)-cyclopent-1-enyl]-penta-2,4-dienoic acid]

EC50 [6]: 150 nM
EC50 [1]: 150 nM
Compound: CC1=C(/C=C/C2=C(/C=C/C(C)=C/C(=O)O)CCC2)C(C)(C)CCC1 [Compound 14, (2E,4E)-3-Methyl-5-[2-[(E)-2-(2,6,6-trimethyl-1-cyclohexen-1-yl)ethenyl]-1-cyclopenten-1-yl]-2,4-pentadienoic acid]

Compound: CCCCOc1c(\C(C)=C/C=C/C(C)=C/C(=O)O)cc(C(C)(C)C)cc1C(C)(C)C [Compound 15, (2E,4E,6Z)-7-[2-butoxy-3,5-bis(1,1-dimethylethyl)phenyl]-3-methyl-2,4,6-octatrienoic acid]
Irritation or inflammation of the skin [4]: does not lead to irritation or inflammation of the skin
Irritation or inflammation of the skin [5]: does not lead to irritation or inflammation of the skin
Skin inflammation (in words) ([2]; 1% epicutaneously twice daily day 1-14, observation to day 28): well tolerated with no skin inflammation
Skin inflammation (in words) ([2]; 1% epicutaneously twice daily day 1-14, observation to day 28, listed as Compound A): does not induce any objective or subjective symptoms
Irritation or inflammation of the skin [2]: does not induce any irritation or inflammation of the skin
Sum of daily inflammation scores from day 15 to disappearance of inflammation [3, 8]: 5
Sum of daily inflammation scores, day 1 to day 28. Total inflammation score [3, 8]: 11
Time in days from day 15 to disappearance of inflammation [3, 8]: 6 days
Sum of daily inflammation scores from day 15 to disappearance of inflammation [3, 9]: 5
Sum of daily inflammation scores, day 1 to day 28. Total inflammation score [3, 9]: 9
Time in days from day 15 to disappearance of inflammation [3, 9]: 6 days

EC50 [6]: 54 nM
EC50 [1]: 16.1 nM
Compound: CCC1(CC)CCC(C)(C)c2cc(\C(C)=C/C=C/C(C)=C/C(=O)O)ccc21 [Compound 24, (2E,4E,6Z)-7-(5,5-Diethyl-8,8-dimethyl-5,6,7,8-tetrahydro-naphthalen-2-yl)-3-methyl-octa-2,4,6-trienoic acid]
